The target in assay [1] is T1, Recombinant human IKKβ (IKK2) (Homo sapiens, UniProt O14920).
T1 construct: Recombinant human IKKβ (residues 5-756); GST (C); made in house
T1 sequence (O14920 5-756): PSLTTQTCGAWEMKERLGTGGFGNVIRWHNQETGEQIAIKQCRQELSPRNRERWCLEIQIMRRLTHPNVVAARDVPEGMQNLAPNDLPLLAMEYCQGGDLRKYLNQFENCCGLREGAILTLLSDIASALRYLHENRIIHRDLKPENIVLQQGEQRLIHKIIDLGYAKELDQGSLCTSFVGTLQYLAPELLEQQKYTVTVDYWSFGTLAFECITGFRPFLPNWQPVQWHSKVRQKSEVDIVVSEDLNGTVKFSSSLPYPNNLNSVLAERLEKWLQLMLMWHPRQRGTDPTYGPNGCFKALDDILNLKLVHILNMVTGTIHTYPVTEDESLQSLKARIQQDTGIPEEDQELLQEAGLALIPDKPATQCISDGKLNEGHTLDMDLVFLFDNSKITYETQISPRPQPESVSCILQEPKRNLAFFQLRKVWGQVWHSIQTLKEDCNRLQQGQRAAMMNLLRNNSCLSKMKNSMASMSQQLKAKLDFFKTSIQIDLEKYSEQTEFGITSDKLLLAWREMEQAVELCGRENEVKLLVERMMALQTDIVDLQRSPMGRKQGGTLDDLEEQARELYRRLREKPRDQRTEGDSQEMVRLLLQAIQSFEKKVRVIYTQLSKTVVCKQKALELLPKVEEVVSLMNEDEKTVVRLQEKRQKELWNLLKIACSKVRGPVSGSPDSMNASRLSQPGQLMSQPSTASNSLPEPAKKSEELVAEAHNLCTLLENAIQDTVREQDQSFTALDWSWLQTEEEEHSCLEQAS
Nature of the assay: IKK2 assay (TR-FRET). It counts as biochemical. The note with it: read-out: pIC50 potency against IKK2 (converted). As for the experimental part: Recombinant human IKKβ (residues 5-756) was expressed in baculovirus as a C-terminal GST-tagged fusion protein, and its activity was assessed using a time-resolved fluorescence resonance energy transfer (TR-FRET) assay. Briefly, IKKβ (0.5-4 nM final concentration) diluted in assay buffer (50 mM HEPES, 10 mM MgCl2, 1 mM CHAPS pH 7.4 with 1 mM DTT and 0.01% w/v BSA) was added to wells containing various concentrations of compound or DMSO vehicle (1.7% v/v final). The reaction was initiated by the addition of GST-IkappaBalpha substrate (25 nM final)/ATP (1 μM final), in a total volume of 6 μl. The reaction was incubated for 15 mins at room temperature, then terminated by the addition of 3 μl of 50 mM EDTA in buffer (100 mM HEPES pH 7.4, 150 mM NaCl and 0.1% w/v BSA) containing antiphosphoserine-IkappaBalpha-32/36 monoclonal antibody clone 12C2 (Cell Signalling Technology, Beverly Mass., USA) labelled with W-1024 europium chelate (Wallac O Y, Turku, Finland), and an APC-labelled anti-GST antibody (Prozyme, San Leandro, Calif., USA). The reaction was further incubated for 60 mins at room temperature and the degree of phosphorylation of GST-IkappaBalpha measured using a Rubystar plate reader (BMG Instruments, Aylesbury, UK) as a ratio of specific 665 nm energy transfer signal to reference europium 620 nm signal.
On the technique in general: In TR-FRET formats the signal depends on donor and acceptor labels being close together.

For assay [2], the system named is human whole blood. As to the kind of experiment: Human whole blood assay (LPS stimulated TNFα). It counts as cell-based. The settings on record: read-out: pIC50 potency, inhibition of TNF production (converted). As for the experimental part:
Heparinised blood drawn from normal volunteers was dispensed (100 μl) into microtitre plate wells containing 1.0 μl of an appropriately diluted compound solution in DMSO. After 1 hr incubation at 37° C., 5% CO2, 25 μl LPS solution (S. typhosa) in RPMI 1640 (containing 1% L-glutamine and 1% Penicillin/streptomycin) was added (50 ng/ml final). The samples were incubated at 37° C., 5% CO2 for 20 hours, 50 μls physiological saline (0.138% NaCl) was added and diluted plasma was collected using a Biomek FX liquid handling robot after centrifugation at 1300 g for 10 min. Plasma TNFα content was determined by electrochemiluminescence assay using the Mesoscale (MSD) technology.
20 μl supernatant from PBMC plates or 40 μl from whole blood plates was transferred using the Biomek FX to a 96 well High-Bind MSD assay plate precoated with anti-hTNF alpha capture antibody and containing 25 μl of MSD human serum cytokine assay diluent. […] The plates were shaken at room temperature for a further 1 hour before washing again and adding 150 μl of MSD Read Buffer T (2×). Plates were then read on the MSD Sector 6000 plate reader. For the PBMC assay, supernatant addition to the MSD plates was followed immediately by 20 μl of MSD detection antibody, the plates were then sealed and shaken for 2 hours before addition of 90 μl of MSD Read Buffer P (2.5×). Plates were read on the MSD Sector 6000. […]

The subject of assay [3] is A549 SPAP cells. Nature of the assay: NFkB reporter assay. It counts as cell-based. The note with it: Homo sapiens, TNF stimulated, read-out: pIC50 potency (converted). As for the experimental part: A 70% confluent T225 flask of A549 SPAP cells was harvested by centrifugation for 5 min at 200 g, resuspended in assay buffer (DMEM supplemented with 10% FCS 2×HI, 2 mM L-Glutamine, 1% Pen/Strep and Non essential amino acids) and diluted to 0.16×10^6/ml. 60 μl of cell solution was dispensed to each well of clear Nunc 384-well plates, containing 0.5 μl compound in neat DMSO at 140× the required final assay concentration. Plates were incubated for 1h at 37° C., 95% humidity, 5% CO2 before […] of TNF solution in assay buffer was added to give a final concentration of 3.2 ng/ml and then returned to the cell incubator for 15 h. Plates were equilibrated to room temperature for 1 h prior to the addition of 25 μl of pNPP buffer (1 M Diethanolamine pH 9.8, 0.5 mM MgCl2, 0.28M NaCl, 2 mg/ml pNPP) to each well of assay plates. The plates were covered to protect the reagents from light, and then incubated at room temperature for approximately 1 hour before reading them on an Ascent using a 405 nm single filter.
All data was normalized to the mean of 16 high and 16 low control wells on each plate. A four parameter curve fit of the following form was then applied
(A reporter such as luciferase makes a cellular process visible.)

SMILES strings stand for the structures.

Regarding `COCCS(=O)(=O)N1CCC(c2c[nH]c3c(C(N)=O)cc(-c4ccc5c(c4)CN(C(C)C)C5)cc23)CC1` [Compound of formula (I), 5-[2-(1-methylethyl)-2,3-dihydro-1H-isoindol-5-yl]-3-(1-{[2-(methyloxy)ethyl]sulfonyl}-4-piperidinyl)-1H-indole-7-carboxamide], the IC50 is less than 0.1 µM in assay [1], less than 0.316 µM in assay [2] and less than 0.0316 µM in assay [3].
